This is an account of results in patent US6355785B1, “Guanosine-rich oligonucleotide integrase inhibitors” (Aronex Pharmaceuticals, Inc., priority 1993, dated 2002).

Where two headings read alike, the source gives them in different places. In the oligonucleotide strings, read from the 5' end, every base follows the letter of its sugar. An asterisk marks phosphorothioate; unmarked linkages are phosphodiester. Other units and linkages are bracketed, terminal groups are in braces. A string of capitals states the bases alone. d = 2'-deoxy (DNA)

One data set deals with HSV-2 strain HG52. Description: HSV-2 viral yield reduction assay in Vero cells.
The test system of another data set is HIV-1 strain DV. Kind of data set: HIV-1 induced syncytia formation assay in SUP T1 cells. To be noted: SUP T1, HIV-1DV, four days; read-out: IC50 Syn (syncytium inhibition). The format is cell-based.
Data set [1] has as its target T1, FMLV reverse transcriptase (Friend murine leukemia virus, UniProt P26810).
T1 construct: Culture media containing FMLV reverse transcriptase (RT) was mixed with various concentrations; endogenous in cells; host or cells: culture medium of FMLV-infected murine fibroblasts (pLRB215)
Kind of data set: Reverse transcriptase assay (ELOSA). The format is biochemical. To be noted: read-out: inhibitory concentration for 50% reduction in RT activity.

A further data set relates to HIV-1DV. Description: HIV-1 p24 production in SUP T1 cells. To be noted: SUP T1, HIV-1DV, four days. The format is cell-based.
The target of the next data set is HIV-1 RT (Human immunodeficiency virus type 1 group M subtype B, UniProt P04585). Kind of data set: In vitro inhibition of HIV-1 RT (kinetic analysis). The format is biochemical.
Data set [2] concerns SUP T1 cells.
Data set [3] deals with HIV-1 gp120 interaction with CD4 (Human immunodeficiency virus type 1 group M subtype B, UniProt P04578).
The test system of data set [4] is HIV-1 strains (SKI, RF, DV, IIIB, ADP/141). Description: microbe, parasite or virus in culture. It counts as cell-based.
Another data set deals with HIV-2 (ROD, EHO). Kind of data set: HIV-2 infection assay in MT4 cells. The format is cell-based. To be noted: read-out: IC50 virus production.
For another data set, the system named is SIVMAC251. It counts as cell-based, simian immunodeficiency virus. To be noted: SIVMAC251, MT4; read-out: IC50 virus production.
In data set [5] the test system is Vesicular Stomatitis virus.
For a further data set, the system named is Influenza A (H3N2). To be noted: Influenza A (H3N2) assay.
The target in data set [6] is recombinant HIV-1 integrase (wild-type) (Human immunodeficiency virus type 1 group M subtype B, UniProt P12497). Description: HIV-1 integrase 3′-processing and strand transfer assays. It counts as biochemical. On the set-up: Purified recombinant HIV-1 integrase enzyme (wild-type) was a generous gift from Dr. R. Craigie; purchased gift of Dr. R. Craigie, Laboratory of Molecular Biology, NIDDK (not bought). The protocol:
Integrase enzyme assays. Purified recombinant HIV-1 integrase enzyme (wild-type) was a generous gift from Dr. R. Craigie, Laboratory of Molecular Biology, National Institute of Diabetes and Digestive and Kidney Diseases. The enzyme (0.25 μM) was preincubated in reaction buffer at 20° C. for 30 minutes. All 3′-processing and strand-transfer reactions were performed as described previously by Fresen et al. (Fresen, et al., Proc. Natl. Acad. Sci. USA 90:2399-2403 (1993)) and Mazumder et al. (Mazumder, et al., Proc. Natl. Acad. Sci. USA 91:5771-5775 (1994)). Enzyme reactions were quenched by the addition of Maxam-Gilbert loading dye, and an aliquot was electrophoresed on a denaturing 20% polyacrylamide gel. Gels were then dried and subjected to autoradiography using Kodax XAR-2 film or exposed in a Molecular Dynamics Phospholmager cassette.
Integrase was preincubated at a final concentration of 200 (for HIV-1 and HIV-2) or 600 nM (for FIV and SIV) with inhibitor in reaction buffer (50 mM Nac1, 1 mM HEPES, pH 7.5, 50 μM dithiothreitol, 10% glycerol (wt/vol), 7.5 mM MnCl2 or MgCL2 (when specified), 0.1 mg/mL bovine serum albumin, 20 mM 2-mercaptoethanol, 10% dimethyl sulfoxide, and 25 mM MOPS, pH 7.2) at 30° C. for 30 minutes. When magnesium was used as the divalent metal ion, polyethylene glycol was added at a final concentration of 5% to increase activity as previously described (Engelman & Craigie, 1995). Preincubation for 30 minutes of the enzyme with inhibitor was performed to optimize increases the inhibitory activity in the 3′-processing reaction (Fesen et al., 1994). Then, 30 nM of the 5′-end ^32P-labeled linear oligonucleotide substrate was added, and incubation was continued for an additional 1 hr. The final reaction volume was 16 μL.
Electrophoresis and quantitation. Reactions were quenched by the addition of an equal volume […] of loading dye (98% deionized formamide, 10 mM EDTA, 0.025% xylene cyanol, 0.025% bromophenol blue). An aliquot (5 μL) was electrophoresed on a denaturing 20% polyacrylamide gel (0.09 M Tris-borate pH 8.3, 2 mM EDTA, 20% acrylamide, 8M urea). Gels were dried, exposed in a Molecular Dynamics Phosphorimager cassette, and analyzed using a Molecular Dynamics phosphorimager (Sunnyvale, Calif.). Percent inhibition was calculated using the following equation:
where C, N, and D are the fractions of 21mer substrate converted to 19mer (3′-processing product) or strand transfer products for DNA alone, DNA plus integrase, and integrase plus drug, respectively.
Antiviral assay. The RF laboratory strain of HIV-1 was used to infect established cell lines for one hour at 37° C. prior to washing and resuspension in medium containing increasing concentrations of drug. […] Purified recombinant HIV-1 integrase enzyme (wild-type) was a generous gift from Dr. Craigie, Laboratory of Molecular Biology, NIDDK. All 3′-processing and strand-transfers were performed as described previously by Fresen et al. (Fresen et al. (1993) Proc. Natl. Acad. Sci. VSA 90, 2399-2403) and Mazurnder et al. (Mazumder et al. (1994) Proc. Natl. Acad. Sci. USA 91, 5771-75).

The next data set has as its target T7 polymerase (Escherichia phage T7, UniProt P00573). Description: Bacterial T7 in-vitro transcription assay. It counts as biochemical. The protocol: In this assay system, a 2 kb fragment (HindIII to EcoR1) of the FMLV virus (clone 57) was molecularly cloned between the HindIII/EcoR1 sites 10 bp downstream of the bacterial T7 promoter (p275A) or 50 bp downstream of the bacterial T3 promoter (pBSFMLV2). A schematic representation of these two recombinant plasmids can be seen in FIG. 1. Isolated recombinant DNA was then digested with DdeI. Oligonucleotides were then incubated with the digested DNA and the mixture was subjected to in-vitro transcription using either the T7 or T3 bacterial enzymes.

Data set [7] has as its system SUP T1 cells. Kind of data set: Cytotoxicity assay, CellTiter 96 (MTS), SUP T1 cells. To be noted: read-out: TC50 (concentration reducing cell proliferation by 50%); SUP T1, dye (MTS) metabolism assay.
In the next data set the test system is HSV-1 IE175 promoter. Kind of data set: Eukaryotic in vitro transcription (HeLa cell nuclear extract).

T7 polymerase, sequence (P00573 whole entry, the tested form may be a part): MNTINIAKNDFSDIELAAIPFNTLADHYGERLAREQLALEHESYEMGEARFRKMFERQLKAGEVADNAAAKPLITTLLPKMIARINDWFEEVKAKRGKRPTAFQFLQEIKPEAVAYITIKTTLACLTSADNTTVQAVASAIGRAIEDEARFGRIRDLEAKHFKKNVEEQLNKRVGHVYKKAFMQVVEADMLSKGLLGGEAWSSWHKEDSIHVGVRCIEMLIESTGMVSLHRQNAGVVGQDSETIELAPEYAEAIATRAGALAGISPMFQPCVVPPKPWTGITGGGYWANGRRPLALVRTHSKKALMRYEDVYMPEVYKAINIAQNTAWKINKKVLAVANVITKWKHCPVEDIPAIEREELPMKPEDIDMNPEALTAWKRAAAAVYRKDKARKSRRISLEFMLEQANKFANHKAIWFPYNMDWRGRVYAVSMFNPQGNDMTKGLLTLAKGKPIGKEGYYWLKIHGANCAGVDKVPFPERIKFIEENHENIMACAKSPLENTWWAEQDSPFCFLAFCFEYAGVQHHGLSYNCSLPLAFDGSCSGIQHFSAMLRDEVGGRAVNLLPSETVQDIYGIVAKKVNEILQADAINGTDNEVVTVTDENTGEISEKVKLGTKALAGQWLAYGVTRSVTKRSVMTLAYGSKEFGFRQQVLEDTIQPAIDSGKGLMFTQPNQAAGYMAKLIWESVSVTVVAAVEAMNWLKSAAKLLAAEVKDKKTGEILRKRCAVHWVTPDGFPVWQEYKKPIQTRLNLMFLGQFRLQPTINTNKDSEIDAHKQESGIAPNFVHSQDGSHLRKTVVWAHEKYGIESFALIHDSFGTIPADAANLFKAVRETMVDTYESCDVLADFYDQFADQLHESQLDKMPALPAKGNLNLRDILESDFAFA

Turning to “B106-97: fully phosphorothioated version of B106-71 (dG*dT*dG*dG*dT*dT*dG*dG*dT*dG*dG*dT*dG*dG*dT*dG*dT*dG*dT*dG*dG*dG*dT*dT*dT*dG*dG*dG*dG*dT*dG*dG*dG*dG*dG*dG; 3' end capped with propanolamine or cholesterol, which one not given here)”, the “concentration reducing virus by 50%” value with HSV-2 strain HG52 is on record as “same levels as B106-96”.

With “5′-gttgggggttgttggtggggtggtgg-3′ [I100-12] (GTTGGGGGTTGTTGGTGGGGTGGTGG; phosphorothioate backbone, further chemistry not given here)”, the IC50 in the data set on HIV-1 strain DV is 225 nM; in data set [1] it was < 500 nM; in the data set with HIV-1DV, < 200 nM; with HIV-1 RT (read-out: ID50 (the source's name)), 15 nM; in data set [3] (read-out: ID50 [CD4], oligo binding to immobilized CD4), 475 nM; in data set [3] (read-out: ID50 [gp 120], oligo preincubated with soluble gp120) it was 80 nM. Further, the inhibition constant Ki with HIV-1 RT came to 5 nM. The same substance had a CC50 in the data set with SUP T1 cells [2] of 18000 nM.

With “Dextran sulfate [DS5000, reference compound]”, the IC50 in data set [4] (HIV-1 ADP/141 (AZT resistant), MT4, read-out: IC50 virus production) came to 32 ± 8 nM; in data set [4] (HIV-1 IIIB, CEM-SS or MT4, read-out: Antiviral Assay IC50 IIIB), 31 nM; in [4] (HIV-1 IIIB, MT4, read-out: IC50 virus production) it was 34 ± 16 nM; in data set [4] (HIV-1 RF, CEM-SS or MT4, read-out: Antiviral Assay IC50 RF) it was 16 nM; in [4] (HIV-1 RF, MT4, read-out: IC50 virus production) it was 18 ± 20 nM; with HIV-2 (ROD, EHO) (HIV-2EHO), 84 ± 86 nM. Also, the IC50 turned out to be 82 ± 88 nM in the data set on HIV-2 (ROD, EHO) (HIV-2ROD); 548 ± 480 nM with SIVMAC251; 70 nM in [6] (3′-processing, read-out: Anti-Integrase Assay IC50 3′-proc); 60 nM in data set [6] (strand transfer, read-out: Anti-Integrase Assay IC50 strand tran.). In addition, the IC50 virus-induced cytopathogenicity is 2 µg/mL with HSV-1 (HSV-1 (KOS)); 2 µg/mL in the data set with HSV-1 (HSV-1 TK (B2006)); 2 µg/mL in the data set with HSV-1 (HSV-1 TK (VMW1837)); 2 µg/mL with HSV-2 (G) (HSV-2 (G)); 10 µg/mL in the data set on Sindbis virus (Sindbis virus); >400 µg/mL in the data set on Semliki forest virus (Semliki forest virus). Further, the IC50 virus-induced cytopathogenicity in data set [5] is 20 µg/mL; in the data set with Vaccinia virus it was >400 µg/mL; with Punta Toro virus (Punta Toro virus), 10.9 µg/mL; in the data set on Yellow Fever virus, 26 µg/mL; in the data set with RSV (A2) (RSV (A2)), 4 µg/mL; with Junin virus it was 13 µg/mL. Further, the IC50 virus-induced cytopathogenicity was 13.5 µg/mL in the data set with Tacaribe, >400 µg/mL in the data set with Coxsackie virus (B4) (Coxsackie virus (B4)) and >400 µg/mL in the data set on Polio virus-1. The “MCC minimum concentration altering normal cell morphology” value in the data set with HSV-1 (HSV-1 (KOS) assay), in the data set with HSV-1 (HSV-1 TK (B2006) assay), with HSV-1 (HSV-1 TK (VMW1837) assay), with HSV-2 (G) (HSV-2 (G) assay), with Sindbis virus (Sindbis virus assay) and with Semliki forest virus (Semliki forest virus assay) was >400 μg/mL each time. In addition, the “MCC minimum concentration altering normal cell morphology” value in data set [5] is >400 μg/mL; with Vaccinia virus it was >400 μg/mL; in the data set with Punta Toro virus (Punta Toro virus assay), >400 μg/mL; with Yellow Fever virus, >200 μg/mL; with RSV (A2) (RSV (A2) assay), >200 μg/mL; in the data set with Influenza A (H3N2), >400 μg/mL. Further, the “MCC minimum concentration altering normal cell morphology” value is >200 μg/mL in the data set on Junin virus, >200 μg/mL in the data set with Tacaribe, >400 μg/mL in the data set with Coxsackie virus (B4) (Coxsackie virus (B4) assay) and >400 μg/mL with Polio virus-1.

Consider “5′-gatccatgtcagtgacactgcgtagatccgatgatccagtcgatg-3′ [I100-11]”, for which the T7 directed transcription entry at T7 polymerase is recorded as “increased the level of specific transcripts”. In addition, in the data set with SUP T1 cells [7], the CC50 was found to be 46500 nM. Also, the “eukaryotic transcription from HSV-1 IE175 promoter” value with HSV-1 IE175 promoter is on record as “capable of inhibiting eukaryotic transcription”.

For orientation: Ki means a dissociation constant, usually derived from enzyme kinetics or from competition with a known ligand. Higher therefore signals weaker binding.
